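Dose response: 5 concentrations. Exposure: 48 h. Format: 96-well plates. Endpoint: linear interpolation; highest concentration if not reached. At the TGI there is no net growth.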
Experiments:
Assay in all cases: DTP human tumour cell line panel, 48 h
[1] = test system: SR leukemia
[2] = test system: SK-MEL-5 melanoma
[3] = test system: OVCAR-5 ovarian
[4] = test system: EKVX NSCLC
[5] = test system: SF-268 CNS
[6] = test system: KM12 colon
[7] = test system: U251 CNS
[8] = test system: NCI-H460 lung
[9] = test system: NCI-H23 lung
[10] = test system: SK-OV-3 ovarian
[11] = test system: HT29 colon
[12] = test system: SF-539 CNS
[13] = test system: SW-620 colon
[14] = test system: HOP-62 NSCLC
[15] = test system: OVCAR-3 ovarian
[16] = test system: OVCAR-8 ovarian
[17] = test system: RPMI-8226 leukemia
[18] = test system: OVCAR-4 ovarian
[19] = test system: KM20L2 colon
[20] = test system: RXF 393 renal
[21] = test system: K-562 leukemia
[22] = test system: NCI-H226 lung
[23] = test system: M19-MEL melanoma
[24] = test system: UACC-257 melanoma
[25] = test system: COLO 205 colon
[26] = test system: ACHN renal
[27] = test system: LXFL 529 NSCLC
[28] = test system: SN12C renal
[29] = test system: DMS 273 small cell lung
[30] = test system: HCC-2998 colon
[31] = test system: SF-295 CNS
[32] = test system: HCT-116 colon
[33] = test system: A549 NSCLC
[34] = test system: HL-60(TB) leukemia
[35] = test system: TK-10 renal
[36] = test system: SNB-19 CNS
[37] = test system: SNB-78 CNS
[38] = test system: UO-31 renal
[39] = test system: LOX IMVI melanoma
[40] = test system: IGROV1 ovarian
[41] = test system: DMS 114 small cell lung
[42] = test system: 786-0 renal
[43] = test system: UACC-62 melanoma
[44] = test system: HCT-15 colon
[45] = test system: M14 melanoma
[46] = test system: CCRF-CEM leukemia
[47] = test system: DLD-1 colon
[48] = test system: SNB-75 CNS
[49] = test system: SK-MEL-28 melanoma
[50] = test system: XF 498 CNS
[51] = test system: MOLT-4 leukemia
[52] = test system: HOP-18 NSCLC
[53] = test system: HOP-92 NSCLC
[54] = test system: SK-MEL-2 melanoma
[55] = test system: A498 renal
[56] = test system: MALME-3M melanoma
[57] = test system: CAKI-1 renal

## NC(=O)NC1=NC(Cc2ccccc2)C(=O)N1Cc1ccccc1 (stereo unspecified)
[1]
  TGI: > 100 µM
[2]
  TGI: > 100 µM
[3]
  TGI: > 100 µM
[4]
  TGI: > 100 µM
[5]
  TGI: > 100 µM
[6]
  TGI: > 100 µM
[7]
  TGI: > 100 µM
[8]
  TGI: > 100 µM
[9]
  TGI: > 100 µM
[10]
  TGI: > 100 µM
[11]
  TGI: > 100 µM
[12]
  TGI: > 100 µM
[13]
  TGI: > 100 µM
[14]
  TGI: > 100 µM
[15]
  TGI: > 100 µM
[16]
  TGI: > 100 µM
[17]
  TGI: > 100 µM
[18]
  TGI: > 100 µM
[19]
  TGI: > 100 µM
[20]
  TGI: > 100 µM
[21]
  TGI: > 100 µM
[22]
  TGI: > 100 µM
[23]
  TGI: > 100 µM
[24]
  TGI: > 100 µM
[25]
  TGI: > 100 µM
[26]
  TGI: > 100 µM
[27]
  TGI: > 100 µM
[28]
  TGI: > 100 µM
[29]
  TGI: > 100 µM
[30]
  TGI: > 100 µM
[31]
  TGI: > 100 µM
[32]
  TGI: > 100 µM
[33]
  TGI: > 100 µM
[34]
  TGI: > 100 µM
[35]
  TGI: > 100 µM
[36]
  TGI: > 100 µM
[37]
  TGI: > 100 µM
[38]
  TGI: > 100 µM
[39]
  TGI: > 100 µM
[40]
  TGI: > 100 µM
[41]
  TGI: > 100 µM
[42]
  TGI: > 100 µM
[43]
  TGI: > 100 µM
[44]
  TGI: > 100 µM
[45]
  TGI: > 100 µM
[46]
  TGI: > 100 µM
[47]
  TGI: > 100 µM
[48]
  TGI: > 100 µM
[49]
  TGI: > 100 µM
[50]
  TGI: > 100 µM
[51]
  TGI: > 100 µM

## c1ccc(CN2CCCCC(Sc3ccccc3)CC2)cc1 (stereo unspecified)
[52]
  TGI: > 100 µM
[1]
  TGI: 37.7 µM
[2]
  TGI: 34.1 µM
[3]
  TGI: 45.1 µM
[4]
  TGI: > 100 µM
[53]
  TGI: 78.8 µM
[5]
  TGI: > 100 µM
[6]
  TGI: > 100 µM
[7]
  TGI: 31.7 µM
[8]
  TGI: 42.5 µM
[54]
  TGI: 90.5 µM
[9]
  TGI: 64.3 µM
[10]
  TGI: > 100 µM
[11]
  TGI: 33.5 µM
[12]
  TGI: 77.4 µM
[13]
  TGI: 4.98 µM
[14]
  TGI: > 100 µM
[15]
  TGI: > 100 µM
[16]
  TGI: > 100 µM
[17]
  TGI: 38.9 µM
[18]
  TGI: > 100 µM
[19]
  TGI: 76.3 µM
[21]
  TGI: 35 µM
[22]
  TGI: 85.2 µM
[23]
  TGI: 12.9 µM
[24]
  TGI: > 100 µM
[25]
  TGI: 26.2 µM
[55]
  TGI: > 100 µM
[26]
  TGI: > 100 µM
[27]
  TGI: 32.6 µM
[28]
  TGI: 61.8 µM
[29]
  TGI: 25.1 µM
[30]
  TGI: 29.8 µM
[31]
  TGI: > 100 µM
[32]
  TGI: 43.9 µM
[33]
  TGI: > 100 µM
[34]
  TGI: 46.3 µM
[35]
  TGI: > 100 µM
[36]
  TGI: > 100 µM
[56]
  TGI: 38.2 µM
[37]
  TGI: 80.1 µM
[38]
  TGI: 28.8 µM
[39]
  TGI: 30.6 µM
[40]
  TGI: > 100 µM
[41]
  TGI: 44.6 µM
[42]
  TGI: 31.6 µM
[43]
  TGI: > 100 µM
[44]
  TGI: 33.5 µM
[45]
  TGI: 32 µM
[57]
  TGI: 69.6 µM
[46]
  TGI: 43.8 µM
[47]
  TGI: 41.7 µM
[48]
  TGI: > 100 µM
[49]
  TGI: > 100 µM
[51]
  TGI: 50.7 µM

Source: PubChem BioAssay (NCI)
